System: T1, GluK2 receptor
T1 construct: gene GRIK2
Assay: aequorin luminescence Ca2+ influx assay in HEK293 cells
Assay type: cell-based
Details: 275 μM glutamate as agonist, Ringer buffer + 100 mM CaCl2
From the text: aequorin luminescence Ca2+ influx assay in HEK293 cells on GluK2 receptor

| IC50 (non-competitive) [µM] | SMILES | GluK2 inhibition at 100 µM, % [%] |
| --- | --- | --- |
| 12 | COc1ccc2c(c1)c(C)c(-c1cccs1)n2C [compound 3, 5-methoxy-1,3-dimethyl-2-(2-thienyl)indole] |  |
|  | O=C1CCCc2c1c1ccccc1n2Cc1ccc(Cl)cc1 [compound 7, 9-(4-chlorobenzyl)-4-oxo-1,2,3,4-tetrahydrocarbazole] | 22 |

Source: paper PMC4295030, “Synthesis and molecular docking of novel non-competitive antagonists of GluK2 receptor” (Medicinal Chemistry Research, 2014)
